Assay results as given in paper PMC11385044 (Chemical Science, 2024).
*1 amine or outer side, *2 acyl side, *3 side chain or, on linkers, in order; H or OH if unused. Where a SMILES comes first, the peptide text is derived from it. Bridges are numbered along the chain shown (N, C = ends). Roman numbers before positions name the chains, in order. The star is where a group is joined. FITC = O=C1OC2(c3ccc(O)cc3Oc3cc(O)ccc32)c2ccc(NC(=S)*)cc21; X1 = O=C(CCc1cn(CC(=O)[*:2])nn1)[*:1]

Target: ubiquitin (Ub) (Homo sapiens, UniProt P0CG47)
Assay: Fluorescence polarization
Format: binding
Conditions: comparison with native UIM-1 peptide 12

CC[C@H](C)[C@H](NC(=O)[C@H](C)NC(=O)[C@@H](NC(=O)[C@H](CCC(=O)O)NC(=O)[C@@H](NC(=O)[C@H](CCC(=O)O)NC(=O)[C@H](CC(C)C)NC(=O)[C@H](CCC(=O)O)NC(=O)[C@H](CCC(=O)O)NC(=O)[C@@H](NC(=O)[C@H](CCC(=O)O)NC(=O)[C@H](CCC(N)=O)NC(=O)[C@H](CCC(=O)O)NC(=O)CCc1cn(CC(=O)N[C@@H](CCCCN)C(=O)N[C@@H](CCC(N)=O)C(=O)N[C@@H](CCCCN)C(=O)N[C@H](C(=O)N[C@@H](C)C(=O)N[C@@H](C)C(=O)N[C@@H](CC(C)C)C(=O)N[C@@H](CCCCN)C(=O)N[C@@H](CCCCNC(=S)Nc2ccc3c(c2)C(=O)OC32c3ccc(O)cc3Oc3cc(O)ccc32)C(=O)N[C@@H](CCCCN)C(=O)N[C@H](C(=O)N[C@@H](C)C(=O)N[C@@H](C)C(=O)N[C@@H](CC(C)C)C(=O)N[C@@H](CCCCN)C(=O)N[C@@H](CCC(N)=O)C(=O)N[C@@H](CCCCN)C(=O)N[C@H](C(=O)N[C@@H](CCC(N)=O)C(=O)NCC(N)=O)[C@@H](C)CC)[C@@H](C)CC)[C@@H](C)CC)nn1)[C@@H](C)CC)[C@@H](C)CC)[C@@H](C)CC)C(=O)N[C@@H](CC(C)C)C(=O)N[C@@H](CC(C)C)C(=O)N[C@@H](CO)C(=O)N[C@@H](CCC(=O)O)C(=O)N[C@H](C(=O)N[C@@H](CCC(=O)O)C(=O)NCC(N)=O)[C@@H](C)CC [Peptide 10] (I: EQEIEELEIEIAILLSEIEG-NH2 / II: KQKIAALKK(FITC)KIAALKQKIQG-NH2; linker I:N-II:N via X1)
Ub binding relative to native UIM-1 peptide: binds more strongly than the native UIM-1 peptide
